Publication PMC11861906, “Structural basis for lipid-mediated activation of G protein-coupled receptor GPR55” (Nature Communications, 2025)

Key:
Assay type in all cases: cell-based
[1] = molecular target: GPR55 mutant R253A (Gα13) (Homo sapiens, UniProt Q9Y2T6, R253A); experiment: BRET² G protein dissociation assay, GPR55 R253A with Gα13
Description: (§1) To validate the functionality of the GPR55 cryo-EM construct, we conducted bioluminescence resonance energy transfer 2 (BRET²)-based G protein dissociation assays[46],[47] using an engineered heterotrimeric G13 protein. The N-terminal GFP fusion of the receptor was additionally modified with a G67A mutation to disrupt fluorescence properties. We employed human embryonic kidney (HEK) cells overexpressing wt or mutant GPR55 together with Gβ3, Gγ9-GFP, and Gα13 tagged with Renilla luciferase 8 (Rluc8).
(§2) G protein dissociation assays were performed according to the original protocols of the TRUPATH BRET² assay[47],[87] but with subtle modifications as previously described[61],[88],[89]. All reagents and cells were obtained from Thermo Fisher Scientific unless indicated otherwise. The coding sequences for the G protein biosensors[47] (Gα12-Rluc8, Gα13-Rluc8, wt Gβ3, and Gγ9-GFP), the wt GPR55, the construct used for cryo-EM (with GFP bearing a G67A mutation to disrupt fluorescence properties[48] for BRET² assays), GPR55 binding pocket mutants (G152^4.56F, G152^4.56W, N171^ECL2Q, N171^ECL2A, T176^5.33A, R253^6.62A), and the wt TBXA2R were codon-optimized for Homo sapiens, gene-synthesized, and sub-cloned into pcDNA^TM3.1(+) between NheI and HindIII restriction sites by GeneArt (Thermo Fisher Scientific). […] Freshly grown cells were washed with Dulbecco’s Balanced Salt Solution (DPBS, cat. #14200075) and detached using trypsin-ethylenediaminetetraacetic acid (trypsin-EDTA) (cat. #25300-062). Then, the cells were reconstituted to 500,000 cells per mL with fresh medium, and 1,000,000 cells were seeded into each well of a 6-well plate. After 3 h incubation at 37 °C and 5% CO2, adherent cells were transfected with 600 ng DNA (1:1:1:1 ratio of plasmid DNA for GPR55, wt Gβ3, Gγ9-GFP, and Gα12-Rluc8 or Gα13-Rluc8). Plasmid DNA was mixed with 1.5 µL Lipofectamine^TM 2000 (cat. #11668027) in Opti-MEM^TM medium (cat. #31985062) and incubated for 20 min. Then, the mixture was added to each well of the 6-well plate following 24 h incubation at 37 °C and 5% CO2. Transfected cells were washed with DPBS, detached using EDTA (Versene, cat. #15040066), and reconstituted into fresh medium at 500,000 cells mL^−1. From this suspension, 50,000 cells were seeded into each well of a white-bottom 96-well plate (Nunc^TM MicroWell^TM 96 wells, cat. #136101) following overnight incubation at 37 °C and 5% CO2. Then, the adherent cells were washed with assay medium [Hank’s balanced salt solution (HBSS, cat. #14065056) plus 20 mM HEPES pH 7.4 (cat. #15630056)] and finally reconstituted into 50 µL of the same medium. […] Methoxy e-Coelenterazine was used as luciferase substrate (Prolume Purple, NanoLight Technology, cat. #369), reconstituted at 1 mM in methanol and diluted to 37.5 µM with assay buffer (7.5 µM final assay concentration). The assay was started by the addition of 20 µL luciferase substrate to each well of the assay plate using a Multidrop^TM Combi reagent dispenser (Thermo Fisher Scientific), followed by 5 min incubation at room temperature. Then, 30 µL of agonist dilutions or DMSO control was added (final DMSO concentration 1.5%), followed by an additional 5 min incubation at room temperature. BRET² measurements were performed with a PHERAstar® FSX microplate reader (BMG LABTECH) using a BRET² filter (donor emission 370–450 nm, acceptor emission 500–530 nm) at the maximum fluorescence gain of 3600. BRET² ratios were calculated by dividing GFP emission signals from Rluc8 emission counts. Buffer-DMSO controls were subtracted from each data point to calculate ΔBRET² ratios.

[2] = molecular target: GPR55 cryo-EM construct (Gα13) (Homo sapiens, UniProt Q9Y2T6); experiment: BRET² G protein dissociation assay, GPR55 cryo-EM construct (GFP G67A) with Gα13; details: Cryo-EM-G67A-G13
Description: as §1, §2

wt GPR55 (Gα13) = wt GPR55 (Gα13) (Homo sapiens, UniProt Q9Y2T6); experiment: BRET² G protein dissociation assay, wt GPR55 with Gα13; details: wt GPR55, Gα13
Description: as §1, §2

[3] = molecular target: GPR55 mutant T176A (Gα13) (Homo sapiens, UniProt Q9Y2T6, T176A); experiment: BRET² G protein dissociation assay, GPR55 T176A with Gα13
Description: as §1, §2

[4] = molecular target: GPR55 mutant N171Q (Gα13) (Homo sapiens, UniProt Q9Y2T6, N171Q); experiment: BRET² G protein dissociation assay, GPR55 N171Q with Gα13
Description: as §1, §2

Compound: CCCCC[C@H](O)/C=C/[C@@H]1[C@@H](C/C=C\CCCC(=O)O)[C@H]2CO[C@@H]1C2 [U-46619]
- Mean (plotted) BRET² response, GPR55-R253A-G13 ([1]; Concentration 10 pM): 0.0024
- Mean (plotted) BRET² response, GPR55-R253A-G13 ([1]; Concentration 30 pM): 0.00435
- Mean (plotted) BRET² response, GPR55-R253A-G13 ([1]; Concentration 100 pM): 0.00475
- Mean (plotted) BRET² response, GPR55-R253A-G13 ([1]; Concentration 300 pM): -0.008328
- Mean (plotted) BRET² response, GPR55-R253A-G13 ([1]; Concentration 1e-9 M): 0.002391
- Mean (plotted) BRET² response, GPR55-R253A-G13 ([1]; Concentration 3e-9 M): 0.002546
- Mean (plotted) BRET² response, GPR55-R253A-G13 ([1]; Concentration 1e-8 M): 0.001532
- Mean (plotted) BRET² response, GPR55-R253A-G13 ([1]; Concentration 3e-8 M): 0.002853
- Mean (plotted) BRET² response, GPR55-R253A-G13 ([1]; Concentration 1e-7 M): 0.0008838
- Mean (plotted) BRET² response, GPR55-R253A-G13 ([1]; Concentration 3e-7 M): -0.0001645
- Mean (plotted) BRET² response, GPR55-R253A-G13 ([1]; Concentration 1e-6 M): -0.0002602
- Mean (plotted) BRET² response, GPR55-R253A-G13 ([1]; Concentration 3e-6 M): -0.001768
- Mean (plotted) BRET² response, GPR55-R253A-G13 ([1]; Concentration 1e-5 M): -0.005378
- Mean (plotted) BRET² response, GPR55-R253A-G13 ([1]; Concentration 3e-5 M): -0.00746
- BRET2 response, Mean (plotted, Fig. S4) ([2]; concentration 10 pM): 0.00025
- BRET2 response, Mean (plotted, Fig. S4) ([2]; concentration 30 pM): -0.003725
- BRET2 response, Mean (plotted, Fig. S4) ([2]; concentration 100 pM): -0.000225
- BRET2 response, Mean (plotted, Fig. S4) ([2]; concentration 300 pM): 0.0002
- BRET2 response, Mean (plotted, Fig. S4) ([2]; concentration 1e-9 M): -7.5e-5
- BRET2 response, Mean (plotted, Fig. S4) ([2]; concentration 3e-9 M): 0.0017
- BRET2 response, Mean (plotted, Fig. S4) ([2]; concentration 1e-8 M): -0.0133
- BRET2 response, Mean (plotted, Fig. S4) ([2]; concentration 3e-8 M): 0.000825
- BRET2 response, Mean (plotted, Fig. S4) ([2]; concentration 1e-7 M): 0.0026
- BRET2 response, Mean (plotted, Fig. S4) ([2]; concentration 3e-7 M): 0.003275
- BRET2 response, Mean (plotted, Fig. S4) ([2]; concentration 1e-6 M): 0.00345
- G protein activation at GPR55-transfected cells (in words) (wt GPR55 (Gα13)): inactive
- Mean (plotted) BRET² response, GPR55-T176A-G13 ([3]; Concentration 10 pM): -0.0049
- Mean (plotted) BRET² response, GPR55-T176A-G13 ([3]; Concentration 30 pM): 0.00215
- Mean (plotted) BRET² response, GPR55-T176A-G13 ([3]; Concentration 100 pM): 0.0004
- Mean (plotted) BRET² response, GPR55-T176A-G13 ([3]; Concentration 300 pM): 0.0002029
- Mean (plotted) BRET² response, GPR55-T176A-G13 ([3]; Concentration 1e-9 M): 0.000161
- Mean (plotted) BRET² response, GPR55-T176A-G13 ([3]; Concentration 3e-9 M): 0.0002381
- Mean (plotted) BRET² response, GPR55-T176A-G13 ([3]; Concentration 1e-8 M): -0.0002172
- Mean (plotted) BRET² response, GPR55-T176A-G13 ([3]; Concentration 3e-8 M): 0.0004783
- Mean (plotted) BRET² response, GPR55-T176A-G13 ([3]; Concentration 1e-7 M): -0.0003604
- Mean (plotted) BRET² response, GPR55-T176A-G13 ([3]; Concentration 3e-7 M): 0.004625
- Mean (plotted) BRET² response, GPR55-T176A-G13 ([3]; Concentration 1e-6 M): 0.001082
- Mean (plotted) BRET² response, GPR55-T176A-G13 ([3]; Concentration 3e-6 M): -0.0002941
- Mean (plotted) BRET² response, GPR55-T176A-G13 ([3]; Concentration 1e-5 M): 0.003133
- Mean (plotted) BRET² response, GPR55-T176A-G13 ([3]; Concentration 3e-5 M): 0.0069
- Mean (plotted) BRET² response, GPR55-N171Q-G13 ([4]; Concentration 10 pM): 0.0013
- Mean (plotted) BRET² response, GPR55-N171Q-G13 ([4]; Concentration 30 pM): 0.00095
- Mean (plotted) BRET² response, GPR55-N171Q-G13 ([4]; Concentration 100 pM): 0.00685
- Mean (plotted) BRET² response, GPR55-N171Q-G13 ([4]; Concentration 300 pM): -0.0003198
- Mean (plotted) BRET² response, GPR55-N171Q-G13 ([4]; Concentration 1e-9 M): 0.003698
- Mean (plotted) BRET² response, GPR55-N171Q-G13 ([4]; Concentration 3e-9 M): 0.002984
- Mean (plotted) BRET² response, GPR55-N171Q-G13 ([4]; Concentration 1e-8 M): -0.00933
- Mean (plotted) BRET² response, GPR55-N171Q-G13 ([4]; Concentration 3e-8 M): 0.006599
- Mean (plotted) BRET² response, GPR55-N171Q-G13 ([4]; Concentration 1e-7 M): 0.005054
- Mean (plotted) BRET² response, GPR55-N171Q-G13 ([4]; Concentration 3e-7 M): 0.005811
- Mean (plotted) BRET² response, GPR55-N171Q-G13 ([4]; Concentration 1e-6 M): 0.005259
- Mean (plotted) BRET² response, GPR55-N171Q-G13 ([4]; Concentration 3e-6 M): -0.001778
- Mean (plotted) BRET² response, GPR55-N171Q-G13 ([4]; Concentration 1e-5 M): 0.001984
- Mean (plotted) BRET² response, GPR55-N171Q-G13 ([4]; Concentration 3e-5 M): -0.005542
